Test results taken from the NIST ThermoML archive (doi:10.1021/je050062a).
Numbers after ± are expanded uncertainties.

Assays:
[1] = refractive index (Na D-line) (dimensionless); details: 298.15 K; 101.33 kPa; Liquid; Standard Abbe refractometry
[2] = Liquid; for mass density: 298.15 K, 101.33 kPa

CC(=O)C(C)C [3-methyl-2-butanone]
Details	mass density [kg/m3]	refractive index
[1]	–	1.3862 ± 0.00074
[2]	799.55 ± 0.65	–

[2]
Details	vapor or sublimation pressure [kPa]
310.45 K	12.1 ± 0.11
318.08 K	16.98 ± 0.11
324.32 K	22.06 ± 0.12
328.85 K	26.46 ± 0.13
330 K	27.69 ± 0.79
333.49 K	31.7 ± 0.14
337.18 K	36.45 ± 0.15
340 K	40.45 ± 0.87
340.26 K	40.84 ± 0.16
346.23 K	50.54 ± 0.18
348.87 K	55.4 ± 0.19
353.57 K	64.95 ± 0.21
357.9 K	74.9 ± 0.23
361.86 K	84.97 ± 0.26
365.36 K	94.78 ± 0.28

CCCC(C)C [2-methylpentane]
Details	mass density [kg/m3]	refractive index
[1]	–	1.36877 ± 0.00072
[2]	648.46 ± 0.59	–

Details	vapor or sublimation pressure [kPa]
[2], 330 K	90.76 ± 1.2

CC(C)C(C)O (configuration not stated) [3-methyl-2-butanol]
Details	mass density [kg/m3]	refractive index
[1]	–	1.407 ± 0.00074
[2]	813.42 ± 0.65	–

[2]
Details	vapor or sublimation pressure [kPa]
323.61 K	6.527 ± 0.1
329.8 K	9.28 ± 0.1
330 K	9.35 ± 0.68
333.31 K	11.16 ± 0.11
336.52 K	13.19 ± 0.11
340 K	15.7 ± 0.72
340.67 K	16.23 ± 0.11
346.13 K	21.09 ± 0.12
354.08 K	30.24 ± 0.14
360.75 K	40.25 ± 0.16
365.98 K	49.79 ± 0.18
370.47 K	59.38 ± 0.21
374.44 K	69.02 ± 0.23
380.99 K	87.65 ± 0.28
382.59 K	92.61 ± 0.29
